# Measured values published in the supplement of paper PMC10307832.
# Legend:
# Assay in all cases: relative viability (nuclei count vs DMSO), 5 days (fraction); higher = more cells survive
# [1] = test system: A-427
# Method in brief: (§1)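 Relative viability equals treated-well nuclei counts divided by vehicle-well nuclei counts. Counts came from 4× images of lung cancer cell lines grown in 1536-well plates for 5 days after pin-tool dosing on the day after seeding. Dosing used one drug alone or a fixed anchor-drug dose plus five library-drug doses (not always all listed) in √10 steps, and values are medians of duplicate plates.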
# [2] = test system: CAL-12T
# Method in brief: as §1
# [3] = test system: COR-L 105
# Method in brief: as §1
# [4] = test system: EMC-BAC-2
# Method in brief: as §1
# [5] = test system: HARA
# Method in brief: as §1
# [6] = test system: HCC-366
# Method in brief: as §1
# [7] = test system: HCC-827
# Method in brief: as §1
# [8] = test system: HOP-62
# Method in brief: as §1
# [9] = test system: LCLC-103H
# Method in brief: as §1
# [10] = test system: NCI-H1355
# Method in brief: as §1
# [11] = test system: NCI-H1395
# Method in brief: as §1
# [12] = test system: NCI-H1437
# Method in brief: as §1
# [13] = test system: NCI-H1755
# Method in brief: as §1
# [14] = test system: NCI-H1792
# Method in brief: as §1
# [15] = test system: NCI-H1915
# Method in brief: as §1
# [16] = test system: NCI-H1975
# Method in brief: as §1
# [17] = test system: NCI-H2009
# Method in brief: as §1
# [18] = test system: NCI-H2228
# Method in brief: as §1
# [19] = test system: NCI-H23
# Method in brief: as §1
# [20] = test system: NCI-H460
# Method in brief: as §1
# [21] = test system: NCI-H727
# Method in brief: as §1
# [22] = test system: SK-LU-1
# Method in brief: as §1
# [23] = test system: SW 1573
# Method in brief: as §1
smiles,measurement,setting,value
CC1(C)CCC(c2ccc(Cl)cc2)=C(CN2CCN(c3ccc(C(=O)NS(=O)(=O)c4ccc(N[C@H](CCN5CCOCC5)CSc5ccccc5)c(S(=O)(=O)C(F)(F)F)c4)cc3)CC2)C1 [Navitoclax] + CC(=O)Nc1cccc(-n2c(=O)n(C3CC3)c(=O)c3c(Nc4ccc(I)cc4F)n(C)c(=O)c(C)c32)c1 [Trametinib] (partner 0.02 µM),relative viability,[1]; first compound 0.005 µM,0.724
same,relative viability,[1]; first compound 0.01581 µM,0.714
same,relative viability,[1]; first compound 0.05 µM,0.624
same,relative viability,[1]; first compound 0.1581 µM,0.599
same,relative viability,[1]; first compound 0.5 µM,0.652
same,relative viability,[2]; first compound 0.005 µM,0.348
same,relative viability,[2]; first compound 0.01581 µM,0.373
same,relative viability,[2]; first compound 0.05 µM,0.351
same,relative viability,[2]; first compound 0.1581 µM,0.331
same,relative viability,[2]; first compound 0.5 µM,0.311
same,relative viability,[3]; first compound 0.005 µM,0.441
same,relative viability,[3]; first compound 0.01581 µM,0.476
same,relative viability,[3]; first compound 0.05 µM,0.428
same,relative viability,[3]; first compound 0.1581 µM,0.447
same,relative viability,[3]; first compound 0.5 µM,0.379
same,relative viability,[4]; first compound 0.005 µM,0.728
same,relative viability,[4]; first compound 0.01581 µM,0.87
same,relative viability,[4]; first compound 0.05 µM,0.866
same,relative viability,[4]; first compound 0.1581 µM,0.848
same,relative viability,[4]; first compound 0.5 µM,0.806
same,relative viability,[5]; first compound 0.005 µM,0.44
same,relative viability,[5]; first compound 0.01581 µM,0.638
same,relative viability,[5]; first compound 0.05 µM,0.917
same,relative viability,[5]; first compound 0.1581 µM,0.587
same,relative viability,[5]; first compound 0.5 µM,1.06
same,relative viability,[6]; first compound 0.005 µM,0.319
same,relative viability,[6]; first compound 0.01581 µM,0.419
same,relative viability,[6]; first compound 0.1581 µM,0.351
same,relative viability,[6]; first compound 0.5 µM,0.288
same,relative viability,[7]; first compound 0.005 µM,0.528
same,relative viability,[7]; first compound 0.01581 µM,0.567
same,relative viability,[7]; first compound 0.05 µM,0.446
same,relative viability,[7]; first compound 0.1581 µM,0.514
same,relative viability,[7]; first compound 0.5 µM,0.55
same,relative viability,[8]; first compound 0.005 µM,0.377
same,relative viability,[8]; first compound 0.01581 µM,0.404
same,relative viability,[8]; first compound 0.05 µM,0.362
same,relative viability,[8]; first compound 0.1581 µM,0.365
same,relative viability,[8]; first compound 0.5 µM,0.39
same,relative viability,[9]; first compound 0.005 µM,0.637
same,relative viability,[9]; first compound 0.01581 µM,0.731
same,relative viability,[9]; first compound 0.05 µM,0.704
same,relative viability,[9]; first compound 0.1581 µM,0.691
same,relative viability,[9]; first compound 0.5 µM,0.685
same,relative viability,[10]; first compound 0.005 µM,0.446
same,relative viability,[10]; first compound 0.01581 µM,0.468
same,relative viability,[10]; first compound 0.05 µM,0.408
same,relative viability,[10]; first compound 0.1581 µM,0.431
same,relative viability,[10]; first compound 0.5 µM,0.458
same,relative viability,[11]; first compound 0.005 µM,1.03
same,relative viability,[11]; first compound 0.01581 µM,1.17
same,relative viability,[11]; first compound 0.05 µM,1.01
same,relative viability,[11]; first compound 0.1581 µM,1.13
same,relative viability,[11]; first compound 0.5 µM,1.04
same,relative viability,[12]; first compound 0.005 µM,0.476
same,relative viability,[12]; first compound 0.01581 µM,0.595
same,relative viability,[12]; first compound 0.05 µM,0.359
same,relative viability,[12]; first compound 0.1581 µM,0.472
same,relative viability,[12]; first compound 0.5 µM,0.539
same,relative viability,[13]; first compound 0.005 µM,0.743
same,relative viability,[13]; first compound 0.01581 µM,0.774
same,relative viability,[13]; first compound 0.05 µM,0.662
same,relative viability,[13]; first compound 0.1581 µM,0.764
same,relative viability,[13]; first compound 0.5 µM,0.802
same,relative viability,[14]; first compound 0.005 µM,0.458
same,relative viability,[14]; first compound 0.01581 µM,0.631
same,relative viability,[14]; first compound 0.1581 µM,0.376
same,relative viability,[14]; first compound 0.5 µM,0.388
same,relative viability,[15]; first compound 0.005 µM,0.287
same,relative viability,[15]; first compound 0.01581 µM,0.327
same,relative viability,[15]; first compound 0.05 µM,0.297
same,relative viability,[15]; first compound 0.1581 µM,0.314
same,relative viability,[15]; first compound 0.5 µM,0.331
same,relative viability,[16]; first compound 0.005 µM,0.427
same,relative viability,[16]; first compound 0.01581 µM,0.409
same,relative viability,[16]; first compound 0.05 µM,0.236
same,relative viability,[16]; first compound 0.1581 µM,0.399
same,relative viability,[16]; first compound 0.5 µM,0.316
same,relative viability,[17]; first compound 0.005 µM,0.324
same,relative viability,[17]; first compound 0.01581 µM,0.355
same,relative viability,[17]; first compound 0.05 µM,0.322
same,relative viability,[17]; first compound 0.1581 µM,0.303
same,relative viability,[17]; first compound 0.5 µM,0.308
same,relative viability,[18]; first compound 0.005 µM,0.476
same,relative viability,[18]; first compound 0.01581 µM,0.802
same,relative viability,[18]; first compound 0.1581 µM,0.511
same,relative viability,[18]; first compound 0.5 µM,0.491
same,relative viability,[19]; first compound 0.005 µM,0.338
same,relative viability,[19]; first compound 0.01581 µM,0.436
same,relative viability,[19]; first compound 0.05 µM,0.443
same,relative viability,[19]; first compound 0.1581 µM,0.357
same,relative viability,[19]; first compound 0.5 µM,0.412
same,relative viability,[20]; first compound 0.005 µM,0.135
same,relative viability,[20]; first compound 0.01581 µM,0.237
same,relative viability,[20]; first compound 0.05 µM,0.153
same,relative viability,[20]; first compound 0.1581 µM,0.188
same,relative viability,[20]; first compound 0.5 µM,0.215
same,relative viability,[21]; first compound 0.005 µM,0.406
same,relative viability,[21]; first compound 0.01581 µM,0.393
same,relative viability,[21]; first compound 0.05 µM,0.378
same,relative viability,[21]; first compound 0.1581 µM,0.399
same,relative viability,[21]; first compound 0.5 µM,0.403
same,relative viability,[22]; first compound 0.005 µM,0.716
same,relative viability,[22]; first compound 0.01581 µM,0.57
same,relative viability,[22]; first compound 0.05 µM,0.296
same,relative viability,[22]; first compound 0.1581 µM,0.601
same,relative viability,[22]; first compound 0.5 µM,0.433
same,relative viability,[23]; first compound 0.005 µM,0.623
same,relative viability,[23]; first compound 0.01581 µM,0.5
same,relative viability,[23]; first compound 0.05 µM,0.654
same,relative viability,[23]; first compound 0.1581 µM,0.475
same,relative viability,[23]; first compound 0.5 µM,0.474
